Measurements taken from paper PMC8698759, “Gold(I) Complexes Bearing Alkylated 1,3,5-Triaza-7-phosphaadamantane Ligands as Thermoresponsive Anticancer Agents in Human Colon Cells” (Biomedicines, 2021).

Legend:
Caco-2 cells [1] = test: Intracellular ROS levels, dichlorofluorescein assay; format: cell-based, human; settings: for intracellular ROS levels, 1 h and 3 h: Caco-2, treated for 1 h and 3 h at IC50 values; for intracellular ROS levels, 24 h: Caco-2, treated for 24 h with IC50 values
Protocol: Caco-2 cells were seeded in 96-wells plate at a density of 4 × 10^3 cells/well and intracellular ROS levels were determined with the dichlorofluorescein assay. Cells were exposed to drug panel for 1, 3 and 24 h and then incubated with 20 µM 2′-7′-dichlorofluorescein diacetate (DCFH-DA) (Merck KGaA, Darmstadt, Germany) in DMEM. The generation of oxidised derivative DCF was monitored by measuring the increase of fluorescence for 1 h, at an emission wavelength of 520 nm and excitation of 485 nm, with a FLUOstar Omega (BMG Labtech, Ortenberg, Germany) multiplate reader. Results were expressed as percentage of fluorescence respect to control, considering fluorescence intensity as a reflection of intracellular ROS levels.

[2] = Distribution coefficient (logD7.4), shake-flask n-octanol/buffered water; format: physicochemical; settings: n-octanol/phosphate buffered saline pH 7.4, shake-flask
Protocol: The n-octanol-water coefficients of the phosphane derivatives were determined as previously reported using a shake-flask method. Briefly: Buffered-saline distilled water (100 mL, phosphate buffer [PO4^3−] = 10 mM, [NaCl] = 0.15 M, pH 7.4) and n-octanol (100 mL) were shaken together for 72 h to allow saturation of both phases. 1 mg of the complexes was dissolved in 5 mL of the aqueous phase and 5 mL of the organic phase were added, mixing for 10 min. The concentration of the complexes in the organic and aqueous phases were then determined using UV absorbance spectroscopy. LogD7.4 = log{[compound(organic phase)]/[compound(aqueous phase)]}.
The lipophilicity can be measured by the partition coefficient water/n-octanol, logD, by experimental procedures such as the shake flask method, which affords the distribution of the drug between an equal amount of n-octanol and water (or buffered aqueous solution).

p53 in Caco-2 cells = test: Determination of p53 by flow cytometry; format: cell-based, human; settings: Caco-2, 48 h, versus non-treated cells
Protocol: Caco-2 cells were seeded in 75 cm^2 flask at a density of 1 × 10^4 cells/cm^2 and, 24 h later, exposed to drug panel for 48 h. Then cells were collected and processed following instructions by Sánchez-de-Diego et al. Finally, 50 µL of every sample were incubated with 5 µL anti-active caspase-3 (BD Pharmigen, Clone C92-605) and 5 µL p53 antibody (Miltenyi, Clone REA609).

Caco-2 cells [3] = test: Propidium iodide staining of DNA content and cell cycle analysis; format: cell-based, human; settings: 3a 5.0 µM, 3b 10.2 µM; for cells in G0-G1 phase, 40 °C / cells in G2-M phase, 40 °C / cells in S phase, 40 °C: Caco-2, 1 h at 40 °C plus 47 h at 37 °C; for cell cycle progression: Caco-2, 48 h; for cells in G0-G1 phase, 37 °C / cells in G2-M phase, 37 °C / cells in S phase, 37 °C: Caco-2, 48 h at 37 °C
Protocol: Caco-2 cells were seeded in 25 cm^2 flasks at a density of 1 × 10^4 cells/cm^2 and 24 h post-seeding, were exposed to drug panel for 48 h. Cells were fixed as described by Sánchez-de-Diego et al. before staining them with 50 μg/mL PI solution.

Structure (SMILES)	intracellular ROS levels, 1 h and 3 h (Caco-2 cells [1])	intracellular ROS levels, 24 h (Caco-2 cells [1])	logD7.4 [2]	p53 accumulation (p53 in Caco-2 cells)	cells in G0-G1 phase, 40 °C (Caco-2 cells [3]) [%]	cells in G2-M phase, 40 °C (Caco-2 cells [3]) [%]	cells in S phase, 40 °C (Caco-2 cells [3]) [%]	cell cycle progression (Caco-2 cells [3])	cells in G0-G1 phase, 37 °C (Caco-2 cells [3]) [%]	cells in G2-M phase, 37 °C (Caco-2 cells [3]) [%]	cells in S phase, 37 °C (Caco-2 cells [3]) [%]
CCCCCCCC[N+]12CN3CN(C1)C[P+]([Au-][S]c1ccccn1)(C3)C2.[I-] [Complex 3a, [Au(C5H5NS)(PTA-CH2(CH2)6CH3)]I]	did not bring significant changes	significant increase	0.35	could induce p53 accumulation	63.7	27.78	8.56	increasing amount of cells in G0-G1 phase	43.3	14.4	42.4
FC(F)(F)C(F)(F)C(F)(F)C(F)(F)C(F)(F)C(F)(F)CC[N+]12CN3CN(C1)C[P+]([Au-][S]c1ccccn1)(C3)C2.O=S(=O)([O-])C(F)(F)F [Complex 3b, [Au(C5H5NS)(PTA-CH2CH2(CF2)5CF3)](TfO)]	did not bring significant changes	significant increase	0.44	could induce p53 accumulation	48.1	17.2	34.7	increasing amount of cells in G0-G1 phase	41.4	12.5	46.1
